Assay results reported in patent publication US20250382589A1, “SYNTHETIC OPERONS FOR THE PRODUCTION OF 2-MERCAPTOETHANE SULFONATE (COENZYME M) AND METHODS OF USING THE SAME” (priority 2024, published 2025).
“And” between values parts separate entries of the source, which are not always exact repeats. Identical values can stand only once.

Key:
[1] = tested on: E. coli K-12 wild-type and ΔtauD; assay type: cell-based, Escherichia coli; details: for growth when plated with 2 mM: 2 mM on plates
Procedure: Uptake of exogenous CoM by E. coli. To determine whether E. coli could catabolize CoM, wild-type (NB506) and ΔtauD (NB510) E. coli K-12 strains were tested for the ability to use CoM, cysteine, and taurine as sole sulfur source on M9 minimal medium lacking sulfur (—S) agar plates after washing to reduce nutrient carryover. E. coli strains were streaked on LB agar (1.5%) plates and used to inoculate 3 mL defined medium (Table 7) then incubated at 35° C. (16 hours, 215 rpm). Cells from 100 μL of each culture was harvested by centrifugation at 5,000×g for 3 minutes. Cells were washed three times and resuspended in 1 mL phosphate buffered saline (137 mM NaCl, 2.7 mM KCl, 10 mM Na2HPO4, 1.8 mM KH2PO4). […] Washed cultures were streaked on each agar plate and incubated at 35° C. for 63 hours before photographing.
We assessed which catabolic pathways could be involved in a hypothetical digestion of CoM by E. coli. […] If this was the case, then the antioxidant effect of CoM may be stronger in the ΔtauD strain when compared to the wild-type strain.

[2] = tested on: E. coli K-12 ΔtauD; assay: Acute oxidative stress assay (H2O2 disks, zone of clearing); assay type: cell-based, Escherichia coli; details: 0.1 mM taurine
Procedure: Acute oxidative stress assay. E. coli K-12 ΔtauD (NB510) was transformed using pET24a (vector-only control, VOC) or pCH003 (com^syn) to generate strains NB515 and NB525, respectively, and grown on LB agar (1.5%) plates containing 50 μg/mL kanamycin. Cultures were grown in defined medium with kanamycin at 37° C. (10 hours, 215 rpm) then 6 mL defined medium was inoculated (1:100). This culture was incubated until OD600=0.4-0.5 then induced using 0.1 mM IPTG. After another hour of incubation, the cultures were then split into two aliquots of 2.6 mL each, given either 0.1 mM taurine or H2O, and incubated another hour. LB plates containing 0.1 mM IPTG and 0.1 mM taurine were prepared and warmed for 15 minutes at 37° C. Cultures were normalized to 0.1 OD600 and 1 mL of culture was spread on each plate. […] Zones of clearing were measured using the ImageJ program.(38) […]
As CoM is a thiol with proposed antioxidant qualities, we tested the ability of operon 3 to protect E. coli from oxidative stress. ΔtauD K-12 E. coli were made kanamycin sensitive through the use of the pCP20 plasmid and given a T7 Polymerase using a λDE3 Lysogenization Kit (Novagen). […] Optical density (OD) measurements at 600 nm were taken every 6 minutes for 17.5 hours using a Tecan Microplate Reader. […]

[3] = tested on: E. coli K-12 ΔtauD; assay: Chronic oxidative stress assay (cumene hydroperoxide, 96-well growth); assay type: cell-based, Escherichia coli; details: taurine supplied
Procedure: Chronic oxidative stress assay. Cultures were prepared according to the procedure outlined in the Acute Stress Assay method above. Cultures were normalized to 0.1 OD600 and 4.5 mL defined medium was inoculated (1:10) and gently mixed. Cultures (148 μL) were dispensed into each well of a sterile 96-well plate. 2 μL of either H2O or […] CuHO2 was added to designated wells.
Observed increases in the doubling times of com^syn expressing cells are expected as these cultures are being tasked with recombinantly producing enzymes which the vector-only control carrying cells are not (FIG. 8d).
As CoM is a thiol with proposed antioxidant qualities, we tested the ability of operon 3 to protect E. coli from oxidative stress. ΔtauD K-12 E. coli were made kanamycin sensitive through the use of the pCP20 plasmid and given a T7 Polymerase using a λDE3 Lysogenization Kit (Novagen). […] Expression of operon 3 was induced for 2 hours using 100 μM IPTG and cultures were incubated with 100 μM taurine for 70 minutes before being used as inoculum in a 96 well plate with cumene hydroperoxide. Optical density (OD) measurements at 600 nm were taken every 6 minutes for 17.5 hours using a Tecan Microplate Reader. A Kirby-Bauer assay was developed which examined the zone of clearing around sterile absorption disks dosed with 5 μL 2.45M hydrogen peroxide.

[4] = tested on: E. coli K-12 ΔtauD; assay: Oxidative stress assay after preincubation with CoM (cumene hydroperoxide)
[5] = tested on: wild-type E. coli K12; assay: as above; assay type: cell-based, Escherichia coli
Excerpt: After having established that E. coli can use CoM as a sulfur source when grown on sulfur-free media, we tested if exogenously supplied CoM could mitigate oxidative stress. […] Protection from oxidative stress remained consistent as the concentration of CuHO2 increased (FIG. 19b). Exponential and logarithmic regression analyses were applied to the lag times of −CoM and +CoM cultures under CuHO2 stress (FIG. 33). These regression curves and their associated equations calculate that the lag time for +CoM E. coli subjected to 65 μM CuHO2 is equivalent to the lag time of −CoM E. coli subjected to ˜50 μM CuHO2.

[6] = tested on: CoM synthesis from pyruvate and taurine; assay: CoM biosynthesis assay in E. coli lysate; assay type: biochemical, Escherichia coli
Procedure: CoM biosynthesis assay. To improve expression of comF, pCH003 was transformed into BL21 E. coli along with pDB1282, graciously provided by Squire J. Booker (Penn State University).(36) This strain was grown in 25 mL defined medium overnight at 37° C. (250 rpm); this was used to inoculate 975 mL defined medium and continued growth at 37° C. (250 rpm). At OD600=0.3 of the culture was supplemented with 2% L-arabinose, 2 mL 1 M cysteine HCl (2 mM), […] iron (II) sulfate (1 mM), and […] ferric ammonium sulfate (1 mM) then returned to incubation. After 1 hour the culture was induced using 0.1 mM IPTG, incubated for 3 hours, pelleted at 8,000×g (10 minutes, 4° C.), and stored at −80° C. until analysis. A portion of the cell pellet was lysed as described above and the presence of ComF and Tpa was confirmed by immunoblotting using a 8-16% polyacrylamide gel with the initial electrophoresis changed to 50 V (25 minutes) followed by 100 V (105 minutes) and transferred using constant 0.11 A (50 minutes). […] Samples were aspirated into a luer slip tip syringe and filtered through a 0.2 μm, 13 mm diameter polyethersulfone (PES) membrane into fresh amber autosampler vials then stored at 4° C. in the dark until analyzed by high-performance liquid chromatography (HPLC) using an UltiMate 3000 (Thermo Scientific, Waltham, MA). […]

N[C@@H](CS)C(=O)O [Cys, cysteine]
growth when plated with 2 mM [1]: no growth defects

NCCS(=O)(=O)O [taurine]
growth when plated with 2 mM [1]: Inhibitory growth | growth with the substance as sulfur source ([1]; M9 (—S) agar plates, 100 μM): grew poorly | zone of clearing of Empty Vector strain [2]: increase in the average zone of clearing size | lag time of vector-only control cells [3]: lag time increased | lag time of vector-only control cells ([3]; listed as SC): increases

O=S(=O)(O)CCS [CoM, 2-mercaptoethanesulfonate]
growth when plated with 2 mM [1]: no growth defects | lag time ([4]; +CoM, 65 μM CuHO2): 4.7 h | CuHO2 mitigated ([4]; comparison of lag times): ~20 µM | lag time ([4]; preincubated with CoM, 75 μM cumene): 3.5 h | CuHO2 concentration giving the same lag time in −CoM culture ([5]; +CoM at 65 μM CuHO2, regression): ~50 µM and 49.73 µM | lag time ([5]; +CoM, 65 μM CuHO2): 6.0 h | lag time predicted by exponential regression ([5]; +CoM, 65 μM CuHO2): 6.313 h | CuHO2 mitigated ([5]; from regression of lag times): ~15 µM | lag time ([5]; preincubated with 100 μM CoM (+CoM), 75 μM cumene negative control, time to OD600=0.1): 3.0 h

B1: Q9APM5: taurine-pyruvate aminotransferase from Bilophila wadsworthia, SEQ ID NO: 3 (protein, listed as Bilophila wadsworthia)
chain: MTYDKAELVALDKKYVWHHLTQHKNFEPAIYVKGEGMRITDIDGKTYLDAVSGGVWTVNVGYGRKEIVDAVAKQMMEMCYFANGIGNVPTIKFSEKLISKMPGMSRVYLSNSGSEANEKAFKIVRQIGQLKHGGKKTGILYRARDYHGTTIGTLSACGQFERKVQYGPFAPGFYEFPDCDVYRSKFGDCADLGVKMAKQLEEVILTVGPDELGAVIVEPMTAGGGILVPPAGYYETIREICDKYELLLIIDEVVCGLGRTGKWFGYQHFNVQPDIVTMAKGVASGYAPISCTVTTEKVFQDFVNDPADTDAYFRDISTFGGCTSGPAAALANIEIIERENLLENCTKMGDRLLEGLKGLMAKHPIIGDVRGKGLFAGIEIVKDRATKEPIAEAVANAMVGAAKQAGVLIGKTSRSFREFNNTLTLCPALIATEADIDEIVAGIDKAFTTVEQKFGL
catalysis ([6]; enzyme alone): Catalysis was not observed

B2: MA3299: coenzyme M synthase (ComF) of Methanosarcina acetivorans, SEQ ID NO: 1 (protein)
chain: MNGALDNTEKPRTIQEIQVKIDAGEAVVLTAEEIGAKVRAGGEIRLEDIDVVTTATRGIMSGTYAVFSFKVSEPDSFVKASKVLLNGVPAIVGPCPNERLGVLDLIVLGTAHSETDSRYGGGHLFRDMVEGKSITVDVTTSVGDFFSVETRLSEMPFARLYATRHAFKNYRAFVNPGKESIKTIFHALPFEGEFRELTFCGCGELNPIQNDPKLETIGIGTRVLINGAEGFVTGQGTRSAPDNPNLTGFADLHDMTPEYMGGFVTSAGPEIVNTWAVPIPVLSREMLENILQLDSQIPLKLVDLAGRLPLCEITYGDVWDNTDLSVKYEPEKCIDCKICCVAEACPMGAVSKGENGAVHNPELCFNCGLCISRCKGEAFSAKLGTVSCAVGGCFRDIKVTLRQSDRARAVKAAEELKAQVLSGKFRLKEPVEKISWRE
modifications: Methanosarcina acetivorans
reduction of enzymatic activity ([6]; lysate removed from the anaerobic chamber for centrifugation): ~60%
